In ChEMBL document CHEMBL1124186, “Synthesis and evaluation of tylosin-related macrolides modified at the aldehyde function: a new series of orally effective antibiotics” (1988):

What was measured:
Cutibacterium acnes = assay: In vitro antimicrobial activity against anaerobic bacteria propionibacterium acnes 79; assay type: functional
[1] = test system: Fusobacterium necrophorum; assay: In vitro antimicrobial activity against anaerobic bacteria usobacterium necrophorum 6054A; assay type: functional
Phocaeicola vulgatus = assay: In vitro antimicrobial activity against anaerobic bacteria bacteroides vulgatus 1211; assay type: functional
Staphylococcus aureus = assay: In vitro antimicrobial activity against Staphylococcus aureus X1; assay type: functional
Streptococcus pyogenes [2] = assay: In vitro antimicrobial activity against Streptococcus pyogenes C203; assay type: functional
[3] = In vitro antimicrobial activity against anaerobic bacteria peptostreptococcus intermedius 1264; assay type: functional
Clostridioides difficile = assay: In vitro antimicrobial activity against anaerobic bacteria Clostridium difficile 2994; assay type: functional
[4] = test system: Peptostreptococcus anaerobius; assay: In vitro antimicrobial activity against anaerobic bacteria eubacterium peptostreptococcus anaerobius 1428,; assay type: functional
Enterococcus faecium = assay: In vitro antimicrobial activity against Streptococcus faecium X66; assay type: functional, streptococcus fae-cium
[5] = test system: Bacteroides thetaiotaomicron; assay: In vitro antimicrobial activity against anaerobic bacteria bacteroides thetaiotaomicron 1438; assay type: functional
Haemophilus influenzae = assay: In vitro antimicrobial activity against Haemophilus influenzae.; assay type: functional
Chlamydia trachomatis = assay: In vitro antimicrobial activity against chlamydia trachomatis.; assay type: functional
Clostridium perfringens = assay: In vitro antimicrobial activity against anaerobic bacteria clostridium perfringens 81,; assay type: functional
Streptococcus pyogenes [6] = assay: In vivo effective dose against experimental infections in rodent caused by Streptococcus pyogenes C203 when administered orally; assay type: functional; details: po
Bacteroides fragilis [7] = assay: In vitro antimicrobial activity against anaerobic bacteria bacteroides fragilis 1877; assay type: functional
Collinsella aerofaciens = assay: In vitro antimicrobial activity against anaerobic bacteria aerofaciens 1235; assay type: functional
[8] = test system: Prevotella melaninogenica; assay: In vitro antimicrobial activity against anaerobic bacteria bacteroides melaninogenicus 1856,; assay type: functional
Streptococcus pyogenes [9] = assay: In vivo effective dose against experimental infections in rodent caused by Streptococcus pyogenes C203 when administered sc; assay type: functional
[10] = test system: Staphylococcus epidermidis; assay: In vitro antimicrobial activity against Staphylococcus epidermidis EPI1; assay type: functional
[11] = test system: Peptoniphilus asaccharolyticus; assay: In vitro antimicrobial activity against anaerobic bacteria peptococcus asaccharolyticus 1302; assay type: functional
Fusobacterium = assay: In vitro antimicrobial activity against anaerobic bacteria fusobacterium symbiosum 1470; assay type: functional
Eikenella corrodens = assay: In vitro antimicrobial activity against anaerobic bacteria bacteroides corrodens 1874; assay type: functional
Streptococcus pneumoniae = assay: In vitro antimicrobial activity against Streptococcus pneumoniae; assay type: functional
[12] = test system: Prevotella melaninogenica; assay: In vitro antimicrobial activity against anaerobic bacteria bacteroides melaninogenicus 2736; assay type: functional
Anaerococcus prevotii = assay: In vitro antimicrobial activity against anaerobic bacteria peptococcus prevoti 1281; assay type: functional
Bacteroides fragilis [13] = assay: In vitro antimicrobial activity against anaerobic bacteria bacteroides fragilis 111; assay type: functional
Bacteroides fragilis [14] = assay: In vitro antimicrobial activity against anaerobic bacteria bacteroides fragilis 1936B,; assay type: functional

CC[C@H]1OC(=O)C[C@@H](O)[C@H](C)[C@@H](O[C@@H]2O[C@H](C)[C@@H](O)[C@H](N(C)C)[C@H]2O)[C@@H](CCO)C[C@@H](C)C(=O)/C=C/C(C)=C/[C@@H]1CO
> 100 mg/kg: ED50 (Streptococcus pyogenes [6])
16 µg/mL: MIC (Streptococcus pyogenes [2])
> 8 µg/mL: MIC (Phocaeicola vulgatus) | MIC [3] | MIC [4] | MIC [5] | MIC (Bacteroides fragilis [7]) | MIC [8] | MIC [11] | MIC (Fusobacterium) | MIC (Eikenella corrodens) | MIC [12] | MIC (Anaerococcus prevotii) | MIC (Bacteroides fragilis [13]) | MIC (Bacteroides fragilis [14])
4 µg/mL: MIC (Cutibacterium acnes) | MIC [1] | MIC (Clostridioides difficile) | MIC (Clostridium perfringens)
> 1 µg/mL: MIC (Chlamydia trachomatis)
> 10 mg/kg: ED50 (Streptococcus pyogenes [9])
64 µg/mL: MIC (Staphylococcus aureus) | MIC (Enterococcus faecium) | MIC (Streptococcus pneumoniae)
32 µg/mL: MIC (Haemophilus influenzae) | MIC [10]
8 µg/mL: MIC (Collinsella aerofaciens)
